In patent publication US20220160666A1, “COMPOSITIONS FOR USE IN SURGERY” (BTG INTERNATIONAL LIMITED, priority 2004, published 2022):

Tests used:
[1] = system: brain field potentials (EEG power spectrum); conditions: rats, cited from earlier work; for change of EEG theta, alpha1,2 and beta1,2 power: α2-adrenoceptor agonists, Dimpfel and Schober, 2001; for change of EEG alpha1,2 and beta1,2 power: general anaesthetics, Dimpfel, 2003
[2] = system: electrical activity of the human brain; assay: Quantitative EEG (CATEEM) during and after 24 h intravenous infusion in healthy male volunteers, placebo-controlled crossover; format: in vivo; conditions: 300 mg/kg iv over 24 h
Text: The present inventors have now studied the effect of ketosis, in the exemplified case induced by administration of sodium salt of (R)-3-hydroxybutyrate (herein referred to as KTX 0101) as a single intravenous infusion of increasing dose and duration to 3 groups (Parts A, B and C) with 3 cohorts of 3 subjects each in Part A, and 1 cohort in each of Parts B (n=3) and C (n=8). Parts A and B were a partial crossover design and Part C was a crossover design. For details see protocol.
A 17-electrode EEG was recorded pre-dose and at 6, 12 and 24 h during the infusion and 1 and 24 hours following the end of drug administration. Recordings were performed under two physiological conditions, namely with 5 minutes eyes open and eyes closed, respectively. KTX 0101 was administered intravenously at a dose of 300 mg/kg given over 24 hours to 1 cohort (n=8) in a double blind placebo controlled crossover design (Part C of the study).
Single rising doses of KTX 0101 or placebo were administered to groups of healthy male volunteers according to a pre-specified dose escalation schedule (see main report). Incremental doses were administered in a stepwise manner proceeding to each higher dose only if the drug was well tolerated and the criteria for stopping dosing had not been met. The last two cohorts obtained the highest doses of 300 mg/kg and consisted of enough volunteers to justify a preliminary evaluation of recorded EEG data in order to obtain information on the pharmacodynamic effects of the potential drug. After recording of pre dose values the infusion was started and continued for 24 hours. EEG recordings took place during the infusion (6, 12 and 24 h) and 1 and 24 h after the end of the infusion. Each recording period was performed under 5 minutes eyes open and 5 minutes of eyes closed condition.
The EEG was recorded bipolarly from 17 surface electrodes according to the international 10/20 system with Cz as a physical reference electrode (Computer aided topographical electro-encephalo-metry: CATEEM® from MediSyst GmbH, 35440 Linden, Germany), using an electrocap. The raw signals were amplified, digitized (2048 Hz/12 bit) and transmitted via fiber optical devices to the computer. […] ECG and EOG were recorded in one channel each in order to facilitate detection of those signals superposing on to the EEG. […] The amount of rejected data was determined automatically and given in percent of total recording time. […] The data was recorded under two physiological conditions over a period of 5 minutes each (eyes open and eyes closed).
Using a Lagrange interpolation, signals from 82 additional virtual electrodes were calculated to provide high resolution topographical maps. […] Data were analysed from 0.86 to 35 Hz using the CATEEM® software. […]

CC(Oc1c(Cl)cccc1Cl)C1=NCCN1 (single isomer, unassigned; (-)) [(-)lofexidine]
change of EEG theta, alpha1,2 and beta1,2 power [1]: Combined increases in theta, alpha1,2 and beta1,2 power

C[C@@H](O)CC(=O)[O-].[Na+] [KTX 0101, sodium salt of (R)-3-hydroxybutyrate]
time after end of infusion up to which EEG changes could be traced [2]: up to 24 hours
change of EEG electrical power relative to pre-drug values ([2]; averaged over 15 electrode positions, during and after infusion): increases of electrical power were observed, especially with respect to theta, alpha and beta power
change of EEG electrical power relative to pre-dose values ([2]; eyes closed, centro-parietal regions, theta, alpha1, alpha2 and beta 1 ranges): increases of electrical power could be observed for the 6 h time period, less for the 12 h period but consistently thereafter
change of EEG electrical power relative to pre-dose values ([2]; eyes open, single electrode positions (FIG. 1)): an increase of delta and theta power as well as of alpha power is observed

Clc1cccc(Cl)c1N=C1NCCN1 [clonidine]
change of EEG theta, alpha1,2 and beta1,2 power [1]: Combined increases in theta, alpha1,2 and beta1,2 power

FC(F)OC(F)C(F)(F)F (stereo not shown) [desflurane]
change of EEG alpha1,2 and beta1,2 power [1]: combined increases in alpha1,2 and beta1,2 power

FC(F)OC(F)(F)C(F)Cl (stereo not shown) [enflurane]
change of EEG alpha1,2 and beta1,2 power [1]: combined increases in alpha1,2 and beta1,2 power

N=C(N)NC(=O)Cc1c(Cl)cccc1Cl [guanfacine]
change of EEG theta, alpha1,2 and beta1,2 power [1]: Combined increases in theta, alpha1,2 and beta1,2 power

FC(F)(F)C(Cl)Br (stereo not shown) [halothane]
change of EEG alpha1,2 and beta1,2 power [1]: combined increases in alpha1,2 and beta1,2 power

COc1nc(C)nc(Cl)c1N=C1NCCN1 [maxonidine]
change of EEG theta, alpha1,2 and beta1,2 power [1]: Combined increases in theta, alpha1,2 and beta1,2 power

Cc1cccc(C(C)c2c[nH]cn2)c1C (stereo not shown) [metedomidine]
change of EEG theta, alpha1,2 and beta1,2 power [1]: Combined increases in theta, alpha1,2 and beta1,2 power

isoflurothane
change of EEG alpha1,2 and beta1,2 power [1]: combined increases in alpha1,2 and beta1,2 power
